The values below come from ChEMBL document CHEMBL1201862, “PubChem BioAssay data set” (2004).

Molecules are shown by their SMILES.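 Step 1: Grow cells in 96-well plates. Step 2: Expose to compound for 48 hours at 5 concentrations. Step 3: Interpolate endpoints linearly; if unreached, use highest concentration. The concentration for 50% growth inhibition is given as GI50.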 Calls of active or inactive are those of the source. Rule as the data show it: active = GI50 up to about 1.1 µM and inactive = higher.

Among the test systems are IGROV-1; OVCAR-3; SF-295; SF-268; SNB-19; UACC-62; SK-MEL-5; NCI-H226; SK-MEL-2; HOP-92; RPMI-8226; U-251; CCRF-CEM; HCT-15; ACHN; HCT-116; HCC 2998; 786-0.
Common to all, as to assay: growth of human tumour cells (NCI), 48 h

As to `COc1cc2c(cc1OC)C(Cl)C(c1ccc(Cl)cc1)=C2Cl` (stereo unspecified), the GI50 with IGROV-1 is 19.3 µM (inactive); with OVCAR-3, 16.5 µM (inactive); in the test with SF-295 it was 14.5 µM (inactive); with SF-268 it was > 10 µM (inactive); in the test on SNB-19, 27.2 µM (inactive); in the test with UACC-62, 12.5 µM (inactive). In addition, the GI50 was 14.4 µM (inactive) in the test on SK-MEL-5; 22 µM (inactive) with NCI-H226; 16 µM (inactive) in the test with SK-MEL-2; 12.6 µM (inactive) in the test on HOP-92; 9.02 µM (inactive) in the test on RPMI-8226; 13.7 µM (inactive) in the test on U-251. For the same molecule, the GI50 in the test with CCRF-CEM is 6.15 µM (inactive); in the test on HCT-15 it was 14.5 µM; in the test on ACHN, 15.2 µM (inactive).

With `CCCCc1c2c(nc3c1CCCC3=O)CCCC2`, the GI50 in the test on HCT-116, in the test with IGROV-1, in the test with OVCAR-3, with SF-295, with SF-268 and in the test on SNB-19 was > 100 µM (inactive) throughout. Further, the GI50 is > 100 µM (inactive) in the test on SK-MEL-5; 18.3 µM (inactive) in the test with NCI-H226; > 100 µM (inactive) in the test on HCC 2998; > 100 µM (inactive) in the test with RPMI-8226; > 100 µM (inactive) in the test with U-251; > 100 µM (inactive) with CCRF-CEM. For the same molecule, the GI50 in the test on HCT-15 was above 100 µM; in the test with ACHN, > 100 µM (inactive); in the test with 786-0, > 100 µM (inactive).

On to `Cc1cc(NS(=O)(=O)c2ccc(NC(=O)c3cccc4cc5ccccc5nc34)cc2)no1`, for which the GI50 with HCT-116 is 6.7 µM (inactive); with IGROV-1, 15.8 µM (inactive); in the test on OVCAR-3 it was 22.3 µM (inactive); in the test with SF-295, 19.9 µM (inactive); in the test on SF-268, 12.9 µM (inactive); in the test on SNB-19 it was 6.46 µM (inactive). The GI50 is 13.8 µM (inactive) in the test on UACC-62; 15.6 µM (inactive) in the test with SK-MEL-5; 0.191 µM (active) in the test on NCI-H226; 18.7 µM (inactive) with SK-MEL-2; 16.1 µM (inactive) with RPMI-8226; 12.5 µM (inactive) with U-251. The GI50 with CCRF-CEM is 16 µM (inactive); with HCT-15 it was 14.7 µM; with ACHN, 11.1 µM (inactive); in the test on 786-0, 16.7 µM (inactive).

With `COC(c1cccc(C(O)(C(F)(F)F)C(F)(F)F)c1)(C(F)(F)F)C(F)(F)F`, the GI50 in the test on HCT-116 is 16.9 µM (inactive); in the test with IGROV-1 it was 20.2 µM (inactive); in the test on OVCAR-3 it was 23.4 µM (inactive); with SF-295 it was 15.7 µM (inactive); in the test with SF-268 it was 23.7 µM (inactive); with SNB-19, 19.4 µM (inactive). Besides, the GI50 is 14.3 µM (inactive) with UACC-62; 18.2 µM (inactive) in the test on NCI-H226; 8.79 µM (inactive) in the test with HCC 2998; 18.2 µM (inactive) in the test on SK-MEL-2; 18.3 µM (inactive) in the test on U-251; 19.1 µM with HCT-15. The GI50 was 15.8 µM (inactive) with ACHN and 17.6 µM (inactive) in the test with 786-0.

As for `COc1cccc(NC(=O)CC(=O)n2nc(C)c(/N=N/c3ccccc3)c2C)c1`, the GI50 in the test with HCT-116, in the test with IGROV-1, in the test on OVCAR-3, with SF-295, with SF-268 and with SNB-19 was > 100 µM (inactive) each time. For the same molecule, the GI50 with UACC-62 is 79.1 µM (inactive); in the test with SK-MEL-5, 76.4 µM (inactive); in the test on NCI-H226 it was 28.5 µM (inactive); in the test with HCC 2998, > 100 µM (inactive); with HOP-92, > 100 µM (inactive); in the test with RPMI-8226 it was > 100 µM (inactive). Moreover, the GI50 with U-251, with ACHN and with 786-0 was > 100 µM (inactive) each time.

Consider `COC(=O)C12CC(c3ccccc31)C1C(=O)OC(=O)C12` (stereo unspecified), for which the GI50 with HCT-116, in the test with IGROV-1, with OVCAR-3, with SF-295, with SF-268 and with SNB-19 was > 100 µM (inactive) each time. In addition, the GI50 in the test with UACC-62, with SK-MEL-5, in the test on HCC 2998, with SK-MEL-2, in the test with HOP-92 and in the test with RPMI-8226 was > 100 µM (inactive) each time. The GI50 in the test on U-251 is > 100 µM (inactive); with CCRF-CEM, > 100 µM (inactive); in the test on HCT-15, above 100 µM; in the test on ACHN, > 100 µM (inactive); with 786-0, > 100 µM (inactive).

On to `CC(O)/C=C/C(CCC(C)CO)C(C)C` (stereo unspecified), for which the GI50 in the test on HCT-116, in the test with IGROV-1, in the test with OVCAR-3, in the test with SF-295, with SF-268 and with SNB-19 was > 100 µM (inactive) throughout. Besides, the GI50 in the test on UACC-62, in the test with SK-MEL-5, in the test with HCC 2998, in the test with SK-MEL-2, in the test with HOP-92 and in the test with RPMI-8226 was > 100 µM (inactive) in each case. The GI50 with U-251 is > 100 µM (inactive); with CCRF-CEM, > 100 µM (inactive); in the test on HCT-15, above 100 µM; in the test on ACHN, > 100 µM (inactive); in the test with 786-0 it was > 100 µM (inactive).

With `Cc1cccc(C)c1NC(=O)CCC(=O)NC(N)=S`, the GI50 with HCT-116, with IGROV-1, in the test on OVCAR-3, with SF-295, with SNB-19 and in the test on UACC-62 was > 100 µM (inactive) in each case. Moreover, the GI50 in the test with SK-MEL-5, with NCI-H226, with HCC 2998, with HOP-92, with RPMI-8226 and in the test on U-251 was > 100 µM (inactive) throughout. In addition, the GI50 with CCRF-CEM was > 100 µM (inactive); in the test on HCT-15, above 100 µM; with ACHN, > 100 µM (inactive); in the test on 786-0, > 100 µM (inactive).

As to `O=C(CSSCC(=O)Nc1ccc(Br)cc1)Nc1ccc(Br)cc1`, the GI50 with HCT-116 is 14.4 µM (inactive); in the test on IGROV-1 it was 18.2 µM (inactive); in the test with OVCAR-3, 18.1 µM (inactive); in the test on SF-295, 14.7 µM (inactive); in the test with SF-268, 13.7 µM (inactive); in the test with SNB-19, 15.3 µM (inactive). In addition, the GI50 in the test with UACC-62 is 15.9 µM (inactive); in the test with SK-MEL-5 it was 24 µM (inactive); in the test on NCI-H226 it was 16.9 µM (inactive); in the test on HCC 2998, 22.1 µM (inactive); in the test on HOP-92, 19 µM (inactive); in the test with RPMI-8226 it was 21.6 µM (inactive). In addition, the GI50 in the test with U-251 is 14.4 µM (inactive); in the test on HCT-15, 19.6 µM; with ACHN it was 15.8 µM (inactive); with 786-0 it was 17.6 µM (inactive).

As to `Cc1cc(C)n(CCNCCn2nc(C)cc2C)n1`, the GI50 in the test on HCT-116, in the test on OVCAR-3, in the test on SF-295, in the test on SF-268, in the test on SNB-19 and in the test on UACC-62 was > 100 µM (inactive) throughout. The GI50 in the test on SK-MEL-5, in the test on HCC 2998, in the test with HOP-92, in the test with RPMI-8226, in the test on U-251 and with CCRF-CEM was > 100 µM (inactive) in each case. Also, the GI50 in the test on ACHN and with 786-0 was > 100 µM (inactive) in each case.

Regarding `Cc1ccccc1NC(=O)CSc1nnc(-c2ccc(/N=C\c3ccc(Cl)cc3)cc2)o1`, the GI50 in the test with HCT-116, in the test with SF-295, in the test on SF-268, with SNB-19, with UACC-62 and in the test on SK-MEL-5 was > 100 µM (inactive) each time. The GI50 is > 100 µM (inactive) in the test on NCI-H226; > 100 µM (inactive) with SK-MEL-2; > 100 µM (inactive) with RPMI-8226; > 100 µM (inactive) in the test with U-251; > 100 µM (inactive) in the test with CCRF-CEM; above 100 µM in the test with HCT-15. Moreover, the GI50 in the test with ACHN and in the test with 786-0 was > 100 µM (inactive) in each case.

For the molecule `CN(C)c1ccc(/C=C/C(=O)O)cc1`, the GI50 in the test with HCT-116 was > 100 µM (inactive); with IGROV-1, > 100 µM (inactive); in the test on OVCAR-3, 49.3 µM (inactive); in the test with SF-295, > 100 µM (inactive); with SF-268 it was > 100 µM (inactive); with SNB-19 it was > 100 µM (inactive). For the same molecule, the GI50 with UACC-62, with SK-MEL-5, in the test on NCI-H226, with HCC 2998, with SK-MEL-2 and in the test with RPMI-8226 was > 100 µM (inactive) in each case. In addition, the GI50 in the test on CCRF-CEM is > 100 µM (inactive); in the test on HCT-15 it was above 100 µM; in the test with ACHN, > 100 µM (inactive).

In the case of `Cn1c(=O)nc2n(-c3ccc(Br)cc3)c3ccccc3nc-2c1=O`, the GI50 in the test with HCT-116 was 4.11 µM (inactive); with IGROV-1 it was 11.7 µM (inactive); with OVCAR-3, 2.48 µM (inactive); in the test with SF-295 it was 3.66 µM (inactive); in the test on SF-268, 11.3 µM (inactive); in the test on SNB-19, 2.9 µM (inactive). For the same molecule, the GI50 in the test with UACC-62 is 1.3 µM (inactive); in the test on SK-MEL-5 it was 1.77 µM (inactive); with NCI-H226, 11 µM (inactive); with HCC 2998 it was 2.21 µM (inactive); in the test on SK-MEL-2, 9.33 µM (inactive); in the test on RPMI-8226 it was 3.16 µM (inactive). Besides, the GI50 with U-251 was 5.12 µM (inactive); in the test with CCRF-CEM, 3.81 µM (inactive); in the test with HCT-15, 3.55 µM; in the test with ACHN it was 0.543 µM (active); with 786-0, 3.74 µM (inactive).
